Converted amounts (≈) assume the structure as drawn.
Key:
[1] = system: Pseudomonas aeruginosa; test: Antibacterial activity against Pseudomonas aeruginosa by two-fold serial dilution technique; type: functional
[2] = system: Bacillus subtilis; test: Antibacterial activity against Bacillus subtilis by two-fold serial dilution technique; type: functional
[3] = system: Staphylococcus aureus; test: Antibacterial activity against Staphylococcus aureus by two-fold serial dilution technique; type: functional
[4] = system: Escherichia coli; test: Antibacterial activity against Escherichia coli by two-fold serial dilution technique; type: functional
[5] = system: Pseudomonas aeruginosa; test: Antibacterial activity against Pseudomonas aeruginosa after 24 hrs by paper disc diffusion technique; type: functional
[6] = system: Staphylococcus epidermidis; test: Antibacterial activity against Staphylococcus epidermidis after 24 hrs by paper disc diffusion technique; type: functional
[7] = system: Escherichia coli; test: Antibacterial activity against Escherichia coli after 24 hrs by paper disc diffusion technique; type: functional
[8] = system: Staphylococcus aureus; test: Antibacterial activity against Staphylococcus aureus after 24 hrs by paper disc diffusion technique; type: functional
[9] = system: Micrococcus luteus; test: Antibacterial activity against Micrococcus luteus after 24 hrs by paper disc diffusion technique; type: functional
[10] = system: Klebsiella pneumoniae; test: Antibacterial activity against Klebsiella pneumoniae after 24 hrs by paper disc diffusion technique; type: functional
[11] = system: Pseudomonas aeruginosa; test: Antibacterial activity against Pseudomonas aeruginosa assessed as zone of inhibition at 20 mg/ml; type: functional; conditions: read-out: IZ
[12] = system: Escherichia coli; test: Antibacterial activity against Escherichia coli assessed as zone of inhibition at 20 mg/ml; type: functional; conditions: read-out: IZ
[13] = system: Staphylococcus aureus; test: Antibacterial activity against Staphylococcus aureus assessed as zone of inhibition at 20 mg/ml; type: functional; conditions: read-out: IZ
[14] = system: Bacillus subtilis; test: Antibacterial activity against Bacillus subtilis assessed as zone of inhibition at 20 mg/ml; type: functional; conditions: read-out: IZ
[15] = system: Shigella dysenteriae; test: Antibacterial activity against Shigella dysenteriae after 24 hrs by agar well diffusion technique; type: functional
[16] = system: Bacillus cereus; test: Antibacterial activity against Bacillus cereus after 24 hrs by agar well diffusion technique; type: functional
[17] = system: Escherichia coli; test: Antibacterial activity against Escherichia coli ATCC 25922 after 24 hrs by agar well diffusion technique; type: functional; conditions: ATCC 25922, 24 h
[18] = system: Staphylococcus aureus; test: Antibacterial activity against Staphylococcus aureus ATCC 25923 after 24 hrs by agar well diffusion technique; type: functional; conditions: ATCC 25923, 24 h
[19] = system: Pseudomonas aeruginosa; test: Antibacterial activity against Pseudomonas aeruginosa; type: functional, organism-based
[20] = system: Escherichia coli; test: Antibacterial activity against Escherichia coli; type: functional, organism-based
[21] = system: Staphylococcus aureus; test: Antibacterial activity against Staphylococcus aureus; type: functional, organism-based
[22] = Pseudomonas aeruginosa, 24 h, read-out: MIC
[23] = Staphylococcus epidermidis, 24 h, read-out: MIC
[24] = Escherichia coli, 24 h, read-out: MIC
[25] = Staphylococcus aureus, 24 h, read-out: MIC
[26] = Micrococcus luteus, 24 h, read-out: MIC
[27] = Klebsiella pneumoniae, 24 h, read-out: MIC

Row | SMILES | MIC [5, 22] [µg/mL] | MIC [6, 23] [µg/mL] | MIC [7, 24] [µg/mL] | MIC [8, 25] [µg/mL] | MIC [9, 26] [µg/mL] | MIC [10, 27] [µg/mL] | other results
1 | O=C(N/N=C1\C(=O)Nc2ccc(C(=O)O)cc21)N/N=C1\C(=O)Nc2ccc(C(=O)O)cc21 |  |  |  |  |  |  | MIC [1]: 6.25 to 100 µg/mL (≈ 14.3 to 229 µM); MIC [2]: 6.25 to 100 µg/mL (≈ 14.3 to 229 µM); MIC [3]: 6.25 to 100 µg/mL (≈ 14.3 to 229 µM); MIC [4]: 6.25 to 100 µg/mL (≈ 14.3 to 229 µM)
2 | COc1ccc(/C=N/c2ccc(/N=C3/C(=O)N(CN4CCN(c5cc6c(cc5F)c(=O)c(C(=O)O)cn6C5CC5)CC4)c4ccc(F)cc43)cc2)cc1 | 7.81 to 125 (≈ 10.9 to 174 µM) | 7.81 to 125 (≈ 10.9 to 174 µM) | 7.81 to 125 (≈ 10.9 to 174 µM) | 7.81 to 125 (≈ 10.9 to 174 µM) | 7.81 to 125 (≈ 10.9 to 174 µM) | 7.81 to 125 (≈ 10.9 to 174 µM) | 
3 | O=C(O)c1cn(C2CC2)c2cc(N3CCN(CN4C(=O)/C(=N/c5ccc(/N=C/c6ccc(O)cc6)cc5)c5cc(F)ccc54)CC3)c(F)cc2c1=O | 7.81 to 125 (≈ 11.1 to 178 µM) | 7.81 to 125 (≈ 11.1 to 178 µM) | 7.81 to 125 (≈ 11.1 to 178 µM) | 7.81 to 125 (≈ 11.1 to 178 µM) | 7.81 to 125 (≈ 11.1 to 178 µM) | 7.81 to 125 (≈ 11.1 to 178 µM) | MIC [5]: 7.81 to 15.62 µg/mL; MIC [6]: 7.81 to 15.62 µg/mL; MIC [7]: 7.81 to 15.62 µg/mL; MIC [8]: 7.81 to 15.62 µg/mL; MIC [9]: 7.81 to 15.62 µg/mL; MIC [10]: 7.81 to 15.62 µg/mL
4 | CC(C)(C)Nc1oc(N(C(=O)CN2C(=O)C(=O)c3ccccc32)C(C)(C)C)c(C(=O)OC(C)(C)C)c1C(=O)OC(C)(C)C |  |  |  |  |  |  | zone of inhibition at 20000 µg/mL [11]: 15.6 to 26 mm; zone of inhibition at 20000 µg/mL [12]: 15.6 to 26 mm; zone of inhibition at 20000 µg/mL [13]: 15.6 to 26 mm; zone of inhibition at 20000 µg/mL [14]: 15.6 to 26 mm
5 | O=C(O)c1cn(C2CC2)c2cc(N3CCN(CN4C(=O)/C(=N/c5ccc(/N=C/c6cccc([N+](=O)[O-])c6)cc5)c5cc(F)ccc54)CC3)c(F)cc2c1=O | 7.81 to 125 (≈ 10.7 to 171 µM) | 7.81 to 125 (≈ 10.7 to 171 µM) | 7.81 to 125 (≈ 10.7 to 171 µM) | 7.81 to 125 (≈ 10.7 to 171 µM) | 7.81 to 125 (≈ 10.7 to 171 µM) | 7.81 to 125 (≈ 10.7 to 171 µM) | 
6 | O=C(O)c1cn(C2CC2)c2cc(N3CCN(CN4C(=O)/C(=N/c5ccc(/N=C/c6ccccc6)cc5)c5cc(F)ccc54)CC3)c(F)cc2c1=O | 7.81 to 125 (≈ 11.4 to 182 µM) | 7.81 to 125 (≈ 11.4 to 182 µM) | 7.81 to 125 (≈ 11.4 to 182 µM) | 7.81 to 125 (≈ 11.4 to 182 µM) | 7.81 to 125 (≈ 11.4 to 182 µM) | 7.81 to 125 (≈ 11.4 to 182 µM) | 
7 | CN(C)c1ccc(/C=N/c2ccc(/N=C3/C(=O)N(CN4CCN(c5cc6c(cc5F)c(=O)c(C(=O)O)cn6C5CC5)CC4)c4ccc(F)cc43)cc2)cc1 | 7.81 to 125 (≈ 10.7 to 171 µM) | 7.81 to 125 (≈ 10.7 to 171 µM) | 7.81 to 125 (≈ 10.7 to 171 µM) | 7.81 to 125 (≈ 10.7 to 171 µM) | 7.81 to 125 (≈ 10.7 to 171 µM) | 7.81 to 125 (≈ 10.7 to 171 µM) | 
8 | Cc1cc(NS(=O)(=O)c2ccc(N)cc2)no1 [SULFAMETHOXAZOLE] |  |  |  |  |  |  | MIC [15]: 2.5 µg/mL (≈ 9.87 µM); MIC [16]: 2.5 µg/mL (≈ 9.87 µM); MIC [17]: 2.5 µg/mL (≈ 9.87 µM); MIC [18]: 2.5 µg/mL (≈ 9.87 µM)
9 | CCOC(=O)CN1C(=O)/C(=C2\SC(=S)N(CC(=O)N(c3oc(NC(C)(C)C)c(C(=O)OCC)c3C(=O)OCC)C(C)(C)C)C2=O)c2ccccc21 |  |  |  |  |  |  | zone of inhibition at 20000 µg/mL [11]: 15.6 to 26 mm; zone of inhibition at 20000 µg/mL [12]: 15.6 to 26 mm; zone of inhibition at 20000 µg/mL [13]: 15.6 to 26 mm; zone of inhibition at 20000 µg/mL [14]: 15.6 to 26 mm
10 | O=C(N/N=C1\C(=O)N(Cc2ccccc2)c2ccc(Cl)cc21)N/N=C1\C(=O)N(Cc2ccccc2)c2ccc(Cl)cc21 |  |  |  |  |  |  | MIC [1]: 6.25 to 100 µg/mL (≈ 10.5 to 167 µM); MIC [2]: 6.25 to 100 µg/mL (≈ 10.5 to 167 µM); MIC [3]: 6.25 to 100 µg/mL (≈ 10.5 to 167 µM); MIC [4]: 6.25 to 100 µg/mL (≈ 10.5 to 167 µM)
11 | COc1cc(/C=N/N2C(N)=NNC23C(=O)Nc2ccc(C)cc23)ccc1O (stereo not drawn) |  |  |  |  |  |  | MIC [15]: 1 to 15 µg/mL (≈ 2.73 to 40.9 µM); MIC [16]: 1 to 15 µg/mL (≈ 2.73 to 40.9 µM); MIC [17]: 1 to 15 µg/mL (≈ 2.73 to 40.9 µM); MIC [18]: 1 to 15 µg/mL (≈ 2.73 to 40.9 µM)
12 | Cc1ccc2c(c1)/C(=N/c1nc3ccccc3[nH]1)C(=O)N2 |  |  |  |  |  |  | MIC [15]: 1 to 15 µg/mL (≈ 3.62 to 54.3 µM); MIC [16]: 1 to 15 µg/mL (≈ 3.62 to 54.3 µM); MIC [17]: 1 to 15 µg/mL (≈ 3.62 to 54.3 µM); MIC [18]: 1 to 15 µg/mL (≈ 3.62 to 54.3 µM)
13 | O=C(O)c1cn(C2CC2)c2cc(N3CCN(CN4C(=O)/C(=N/c5ccc(/N=C/c6ccc(Cl)cc6)cc5)c5cc(F)ccc54)CC3)c(F)cc2c1=O | 7.81 to 125 (≈ 10.8 to 173 µM) | 7.81 to 125 (≈ 10.8 to 173 µM) | 7.81 to 125 (≈ 10.8 to 173 µM) | 7.81 to 125 (≈ 10.8 to 173 µM) | 7.81 to 125 (≈ 10.8 to 173 µM) | 7.81 to 125 (≈ 10.8 to 173 µM) | 
14 | O=C(O)c1cn(C2CC2)c2cc(N3CCN(CN4C(=O)/C(=N/c5ccc(/N=C/c6ccc([N+](=O)[O-])cc6)cc5)c5cc(F)ccc54)CC3)c(F)cc2c1=O | 7.81 to 125 (≈ 10.7 to 171 µM) | 7.81 to 125 (≈ 10.7 to 171 µM) | 7.81 to 125 (≈ 10.7 to 171 µM) | 7.81 to 125 (≈ 10.7 to 171 µM) | 7.81 to 125 (≈ 10.7 to 171 µM) | 7.81 to 125 (≈ 10.7 to 171 µM) | 
15 | COC(=O)c1c(NC(C)(C)C)oc(N(C(=O)CN2C(=O)/C(=C3/C(=O)N(CC(=O)N(c4oc(NC(C)(C)C)c(C(=O)OC(C)(C)C)c4C(=O)OC(C)(C)C)C(C)(C)C)c4ccccc43)SC2=S)C(C)(C)C)c1C(=O)OC |  |  |  |  |  |  | zone of inhibition at 20000 µg/mL [11]: 15.6 to 26 mm; zone of inhibition at 20000 µg/mL [12]: 15.6 to 26 mm; zone of inhibition at 20000 µg/mL [13]: 15.6 to 26 mm; zone of inhibition at 20000 µg/mL [14]: 15.6 to 26 mm
16 | COc1cc(/C=N/c2ccc(/N=C3/C(=O)N(CN4CCN(c5cc6c(cc5F)c(=O)c(C(=O)O)cn6C5CC5)CC4)c4ccc(F)cc43)cc2)ccc1O | 7.81 to 125 (≈ 10.7 to 171 µM) | 7.81 to 125 (≈ 10.7 to 171 µM) | 7.81 to 125 (≈ 10.7 to 171 µM) | 7.81 to 125 (≈ 10.7 to 171 µM) | 7.81 to 125 (≈ 10.7 to 171 µM) | 7.81 to 125 (≈ 10.7 to 171 µM) | 
17 | O=C(N/N=C1\C(=O)Nc2ccc(F)cc21)N/N=C1\C(=O)Nc2ccc(F)cc21 |  |  |  |  |  |  | MIC [1]: 6.25 to 100 µg/mL (≈ 16.3 to 260 µM); MIC [2]: 6.25 to 100 µg/mL (≈ 16.3 to 260 µM); MIC [3]: 6.25 to 100 µg/mL (≈ 16.3 to 260 µM); MIC [4]: 6.25 to 100 µg/mL (≈ 16.3 to 260 µM)
18 | CC[C@H]1OC(=O)[C@H](C)[C@@H](O[C@H]2C[C@@](C)(OC)[C@@H](O)[C@H](C)O2)[C@H](C)[C@@H](O[C@@H]2O[C@H](C)C[C@H](N(C)C)[C@H]2O)[C@](C)(O)C[C@@H](C)CN(C)[C@H](C)[C@@H](O)[C@]1(C)O [AZITHROMYCIN] |  |  |  |  |  |  | MIC [19]: 6.25 to 12.5 µg/mL (≈ 8.34 to 16.7 µM); MIC [20]: 6.25 to 12.5 µg/mL (≈ 8.34 to 16.7 µM); MIC [21]: 6.25 to 12.5 µg/mL (≈ 8.34 to 16.7 µM)
